Results: paper PMC9738531, “Cholinesterases Inhibition, Anticancer and Antioxidant Activity of Novel Benzoxazole and Naphthoxazole Analogs” (Molecules, 2022)
Like-named read-outs stand apart in the source and are kept apart here.

Tests used:
[1] = test system: HCV29T (bladder cancer) cells; assay: SRB antiproliferative assay, HCV29T; format: cell-based, human; conditions: 72 h, means ± SD, read-out: IC50 HCV 29T
Method: (§1) The compounds were also evaluated for their antiproliferative potencies against human cancer cell lines as the potential anticancer agents. […]. The results are presented in Table 3 and expressed as IC50 (μM). In that score, the highest potency was shown by the analogs from the naphtho[1,2-d][1,3]oxazole group 8–10, particularly by derivative 10 with a chlorine atom on the benzenediol moiety.
(§2) In the antiproliferative assay in vitro, the following human cell lines were applied: T47D (breast cancer), SW707 (rectal adenocarcinoma), A549 (non-small cell lung carcinoma) from the American Type Culture Collection (Rockville, MD, USA) and HCV29T (bladder cancer) from the Fibiger Institute, Copenhagen, Denmark. Cytotoxicity assay was performed after 72 h exposure of the cultured cells at the concentration ranging from 0.1 to 100 μg/mL of the tested agents. The SRB test measuring the cell proliferation inhibition in the in vitro culture was applied. The cellular material fixed with TCA was stained with 0.4% sulforhodamine B (Chemie GmbH, Steinheim, Germany) dissolved in 1% acetic acid (POCh, Gliwice, Poland) for 30 min.

[2] = test system: A549 (non-small cell lung carcinoma) cells; assay: SRB antiproliferative assay, A549; format: cell-based, human; conditions: means ± SD
Method: as §1, §2

[3] = test system: T47D (breast cancer) cells; assay: SRB antiproliferative assay, T47D; format: cell-based, human; conditions: 72 h, means ± SD
Method: as §1, §2

[4] = test system: SW707 (rectal adenocarcinoma) cells; assay: SRB antiproliferative assay, SW707; format: cell-based, human; conditions: means ± SD, read-out: IC50 SW 707
Method: as §1, §2

[5] = DPPH free radical scavenging activity; conditions: concentration scavenging 50% of DPPH radicals; means ± SD of three experiments
Method: To evaluate the antioxidant potential of compounds as radical scavengers versus the stable free radicals, 2,2-diphenylpicrylhydrazyl (DPPH) was applied. Antioxidant properties were expressed as the IC50 value—the concentration of compound required for scavenging 50% of DPPH radicals. […].
The DPPH free radical scavenging activities of the synthesized compounds were measured by DPPH, according to the method described in the paper. The free radical scavenging activity was measured as a decrease in the absorbance of DPPH, and calculated using the equation:DPPH scavenging effects (%) = […] [(A0 − A1)/A0]∙100](2) where: A0 was the absorbance of the control reaction and A1 absorbance in the presence of the sample of the analysed compounds [62]. The IC50 values were calculated as the concentration of compound required for scavenging 50% of DPPH [45]. Results were presented as the mean ± standard deviation (SD). The antioxidant activity data were compared using the one-way ANOVA test at the significance level 5%.

[6] = molecular target: T1, Acetylcholinesterase (AChE, E.C. 3.1.1.7, from human erythrocytes) (Homo sapiens, UniProt P22303); assay: biochemical; conditions: for Selectivity for AChE: IC50 (BChE)/IC50 (AChE); for IC50: means ± SEM of three independent experiments
T1 construct: Acetylcholinesterase (AChE, E.C. 3.1.1.7, from human erythrocytes); purchased Sigma-Aldrich (Steinheim, Germany); host or cells: human erythrocytes (natural source)
Method: (§3) The compounds were evaluated by an in vitro assay as the AChE and BChE inhibitors. The studies were carried out using the modified Ellman’s method. […] The inhibitory activities against AChE and BChE of the newly-synthesized compounds were determined exactly, according to a previous paper. […] The samples were analysed in triplicate. IC50 values were designated from a dose–response curve obtained by plotting the percentage of inhibition versus the log concentration, using GraphPad Prism 8 software. […] AChE and BChE activity data were compared using the Kruskal–Wallis test at the significance level of 1%.

[7] = molecular target: T2, butyrylcholinesterase (BChE, E.C. 3.1.1.8, from equine serum) (Equus caballus, UniProt P81908); assay: biochemical; conditions: means ± SEM of three independent experiments
T2 construct: butyrylcholinesterase (BChE, E.C. 3.1.1.8, from equine serum); purchased Sigma-Aldrich (Steinheim, Germany); host or cells: equine serum (natural source)
Method: as §3

[8] = Lipophilicity by RP-18 HPLC chromatography; format: physicochemical; conditions: for -S (slope of log k vs MeOH fraction): MeOH/acetate buffer, pH 7.4; for log kw: pH 7.4, extrapolation to pure water as mobile phase
Source text: The lipophilicity parameter was estimated for the tested compounds as it is an important feature that influences the pharmacokinetic properties of bioactive compounds [46, 47]. Lipophilicity also determines some biological activities, such as the antiproliferative or fungistatic activity. For lipophilicity determination, reversed-phase column chromatography was used, with the octadecyl C-18 stationary phase and MeOH as the organic modifier in the isocratic conditions.
HPLC measurements were performed using a liquid chromatograph (Knauer, Berlin, Germany) with a dual pump and a UV-visible detector. The measurements were made at 254 or 320 nm at room temperature. A Eurosil Bioselect C18 (5 μm, 300 × 4.6 mm) column was applied as the stationary phase. The mobile phase consisted of different volume mixtures of 20 mM acetate buffer as the aqueous phase, and MeOH as the organic modifier (pH 7.4). The different concentrations of MeOH from 0.5 to 0.90 (v/v) range was used, depending on the structure of the compound at 0.05 intervals. The flow rate was 1 mL/min. Retention time of an unretained solute (t0) was determined by the injection of a small amount of acetone dissolved in water.
Regular changes in the retention coefficients of compounds in a function of the organic modifier MeOH content in the mobile phase are described by the Soczewiński–Wachtmeister equation [56]:log k = log kw + S φ(1)
φ—the volume fraction of organic modifier (MeOH) in the mobile phase; log kw—the intercept; S—slope of the regression curve. Log kw refers to the retention parameter of a compound with pure water as the mobile phase.

AChE = molecular target: T3, AChE (Homo sapiens, UniProt P22303); assay: Kinetic study of AChE inhibition (Lineweaver-Burk); format: biochemical; conditions: for type of AChE inhibition: Lineweaver-Burk plot
T3 construct: Acetylcholinesterase (AChE, E.C. 3.1.1.7, from human erythrocytes); purchased Sigma-Aldrich (Steinheim, Germany); host or cells: human erythrocytes (natural source)
Method: Ellman’s method was used to prepare a kinetic characterization of AChE inhibition for compound 8. […]. The tested medium contained DTNB solution (0.4 mg/mL), AChE solution (2 U/mL), solution of the examined compound 8, and different concentrations of the ATCh iodide substrate solution (S). Absorbance was detected at 412 nm at room temperature after 10 min. The obtained data were calculated and presented on the Lineweaver–Burk plot. The determined the Michaelis–Menten constant (KM) and the maximum velocity of the enzyme (Vmax) values were used to define the type of enzyme inhibition.

[9] = test system: normal mammary gland MCF10A cells; assay: LDH cytotoxicity assay, MCF10A normal cells; format: cell-based, human; conditions: 72 h
Method: (§4) In view of the observed antiproliferative activity, the influence of the tested compounds on the normal human cells—normal mammary gland epiterial cells of the MCF10A line and the normal keratenocytes HaCaT line—was examined (Figure 5). The cells were treated with compounds 3, 8 and 10 in the concentration range from 0.1 µM to 25 µM for 72 h, after which the cell viability was tested by analysis of the level of released lactate dehydrogenase (LDH method).
(§5) Normal human epithelial cells from the mammary gland, MCF10A (a generous gift from our colleague Dr. Saraswati Sukumar (JHU), who obtained them recently from ATCC), and normal human keratinocytes HaCaT (also obtained from ATCC), were cultured in DMEM/F12 medium (Gibco), supplemented with 5% horse serum (Gibco), 5% FBS (Sigma-Aldrich Chemie GmbH, Taufkirchen, Germany ), penicillin streptomycin solution (1×) (Gibco) at 37 °C and 5% CO2. The cells were subcultured twice a week.
(§6) Human epiterial breast cells MCF10A and human keratinocytes HaCaT (1 × 10^4/mL) cells were placed on 96-well plates (Nunc, Roskilde, Denmark). The next day, the cells were exposed to increasing concentrations of compounds 3, 8 and 10 in 0.1, 0.25, 0.5, 1, 2.5, 5, 10 and 25 μM in fresh culture medium. Cytotoxicity was estimated based on the measurements of cytoplasmic lactate dehydrogenase (LDH) activity released from the damaged cells after the 72 h exposure to the compounds. The LDH assay was performed according to the manufacturer’s instructions (Cytotoxicity Detection KitPLUS LDH, Roche, Mannheim, Germany). Absorbance was measured using a microplate at two different wavelengths: “measurement wavelength” (492 nm) and “reference wavelength” (690 nm), using a microplate.

[10] = test system: normal keratinocytes HaCaT cells; assay: LDH cytotoxicity assay, HaCaT normal cells; format: cell-based, human; conditions: 72 h; for toxicity to keratinocytes (LDH release): HaCaT
Method: as §4, §5, §6

T2 sequence (P81908 whole entry): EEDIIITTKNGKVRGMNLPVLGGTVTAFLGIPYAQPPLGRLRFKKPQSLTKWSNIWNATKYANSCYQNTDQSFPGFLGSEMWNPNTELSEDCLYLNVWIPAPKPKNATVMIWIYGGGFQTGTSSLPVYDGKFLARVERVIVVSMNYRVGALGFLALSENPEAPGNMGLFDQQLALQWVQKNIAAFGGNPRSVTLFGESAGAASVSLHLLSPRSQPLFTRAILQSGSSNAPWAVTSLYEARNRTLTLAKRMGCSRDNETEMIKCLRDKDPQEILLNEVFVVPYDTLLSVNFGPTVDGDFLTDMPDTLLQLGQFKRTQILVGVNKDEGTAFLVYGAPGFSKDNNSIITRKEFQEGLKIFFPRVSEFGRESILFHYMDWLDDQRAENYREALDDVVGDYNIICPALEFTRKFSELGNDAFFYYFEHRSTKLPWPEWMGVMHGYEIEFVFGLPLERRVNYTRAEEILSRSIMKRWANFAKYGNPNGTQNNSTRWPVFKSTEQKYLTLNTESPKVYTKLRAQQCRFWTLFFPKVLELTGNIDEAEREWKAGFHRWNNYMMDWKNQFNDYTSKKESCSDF
T1 sequence (P22303 other isoform, or with tags, fused parts or gaps): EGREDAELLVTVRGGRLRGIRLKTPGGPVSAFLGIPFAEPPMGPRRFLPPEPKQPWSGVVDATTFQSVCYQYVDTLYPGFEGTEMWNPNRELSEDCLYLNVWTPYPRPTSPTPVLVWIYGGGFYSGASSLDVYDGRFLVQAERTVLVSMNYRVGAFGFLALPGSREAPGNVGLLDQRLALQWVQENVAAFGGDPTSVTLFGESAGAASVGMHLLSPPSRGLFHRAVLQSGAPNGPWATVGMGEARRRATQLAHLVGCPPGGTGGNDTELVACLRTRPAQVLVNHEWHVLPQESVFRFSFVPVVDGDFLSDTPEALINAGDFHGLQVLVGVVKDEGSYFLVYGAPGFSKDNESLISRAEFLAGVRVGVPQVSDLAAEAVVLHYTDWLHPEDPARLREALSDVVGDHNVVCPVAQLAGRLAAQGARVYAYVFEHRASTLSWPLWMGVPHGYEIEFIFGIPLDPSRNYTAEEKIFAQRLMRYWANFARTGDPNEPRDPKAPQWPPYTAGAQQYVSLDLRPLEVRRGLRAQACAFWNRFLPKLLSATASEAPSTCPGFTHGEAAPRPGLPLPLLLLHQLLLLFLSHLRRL
T3 sequence (P22303 other isoform, or with tags, fused parts or gaps): as above

| SMILES | IC50 [5] [µM] | Selectivity for AChE [6] | IC50 [6] [µM] | IC50 [7] [µM] | IC50 ([1]; Homo sapiens, HCV29T) [µM] | IC50 ([2]; Homo sapiens, A549, 72 h) [µM] | IC50 ([3]; Homo sapiens, T47D) [µM] | IC50 ([4]; Homo sapiens, SW707, 72 h) [µM] | -S (slope of log k vs MeOH fraction) [8] | log kw [8] | also measured |
| --- | --- | --- | --- | --- | --- | --- | --- | --- | --- | --- | --- |
| N.N.[Cl][Pt][Cl] [cisplatin, reference compound] |  |  |  |  |  |  |  |  |  |  | IC50 [1]: 2.4 ± 0.32 µM; IC50 ([2]; 72 h): 3.07 ± 0.45 µM; IC50 [3]: 4.01 ± 1.58 µM; IC50 ([4]; 72 h): 3.65 ± 0.76 µM |
| O=c1c(O)c(-c2ccc(O)c(O)c2)oc2cc(O)cc(O)c12 [quercetin, reference compound] | 0.032 ± 0.001 |  |  |  |  |  |  |  |  |  |  |
| CCc1cc(-c2nc3c(ccc4ccccc43)o2)c(O)cc1O [Compound 9, 4-Ethyl-6-(naphtho[1,2-d][1,3]oxazol-2-yl)benzene-1,3-diol] | 0.214 ± 0.024 | 1.971 | 0.516 ± 0.009 | 1.02 ± 0.032 | 3.72 ± 0.36 | 4.94 ± 0.69 | 7.28 ± 2.5 | 8.58 ± 3.4 | 5.395 | 4.901 |  |
| Oc1ccc(-c2nc3c(ccc4ccccc43)o2)c(O)c1 [Compound 8, 4-(Naphtho[1,2-d][1,3]oxazol-2-yl)benzene-1,3-diol] | 0.452 ± 0.031 |  | 0.058 ± 0.01 | 0.981 ± 0.015 | 2.5 ± 1.88 | 4.17 ± 0.19 | 2.86 ± 0.18 | 3.35 ± 0.16 | 4.263 | 3.936 | type of AChE inhibition (AChE): mixed-type inhibitor; type of AChE inhibition (AChE; listed as 4-(Naphtho[1,2-d][1,3]oxazol-2-yl)benzene-1,3-diol): mixed-type inhibition; Vmax (AChE; compound 8 concentration 25 nM): 0.031 A/min; Vmax (AChE; compound 8 concentration 50 nM): 0.023 A/min; Vmax (AChE; compound 8 concentration 75 nM): 0.021 A/min; influence on mammary cells viability (LDH) ([9]; 0.1–5 µM): no influence; toxicity to keratinocytes (LDH release) ([10]; whole tested range 0.1–25 µM): toxic |
| Oc1ccc(-c2nc3ccccc3o2)c(O)c1 [Compound 1, 4-(1,3-Benzoxazol-2-yl)benzene-1,3-diol] |  |  |  |  | 33.9 ± 4.77 |  |  |  | 4.358 | 3.273 |  |
| CCc1cc(-c2nc3ccc(C(=O)OC)cc3o2)c(O)cc1O [Compound 5, Methyl 2-(5-ethyl-2,4-dihydroxyphenyl)-1,3-benzoxazole-6-carboxylate] |  |  |  |  | 3.54 ± 1.05 | 3.08 ± 0.26 | 4.11 ± 1.27 | 2.13 ± 0.49 | 5.855 | 3.774 |  |
| COC(=O)c1ccc2nc(-c3ccc(O)c(O)c3O)oc2c1 [Compound 7, Methyl 2-(2,3,4-trihydroxyphenyl)-1,3-benzoxazole-6-carboxylate] | 0.887 ± 0.064 | 3.644 | 0.183 ± 0.031 | 0.667 ± 0.004 | 23.3 ± 4.07 |  |  |  | 4.811 | 2.800 |  |
| Cc1c(O)ccc(-c2nc3ccc(O)cc3o2)c1O [Compound 2, 4-(6-Hydroxy-1,3-benzoxazol-2-yl)-2-methylbenzene-1,3-diol] |  |  |  |  | 8.34 ± 1.53 | 6.81 ± 2.23 | 5.28 ± 0.16 | 4.38 ± 1.57 | 4.64 | 3.301 |  |
| COC(=O)c1ccc2nc(-c3ccc(O)c(C)c3O)oc2c1 [Compound 4, Methyl 2-(2,4-dihydroxy-3-methylphenyl)-1,3-benzoxazole-6-carboxylate] |  |  |  |  | 4.64 ± 0.93 | 3.71 ± 0.4 | 3.2 ± 0.84 | 3.36 ± 0.84 | 5.002 | 3.411 |  |
| COC(=O)c1ccc2nc(-c3cc(Cl)c(O)cc3O)oc2c1 [Compound 6, Methyl 2-(5-chloro-2,4-dihydroxyphenyl)-1,3-benzoxazole-6-carboxylate] | 0.861 ± 0.071 | 0.394 | 0.831 ± 0.014 | 0.328 ± 0.027 | 7.54 ± 3.15 | 10.5 ± 5.61 | 6.61 ± 2.48 | 6.04 ± 0.89 | 5.477 | 4.223 |  |
| COC(=O)c1ccc2nc(-c3ccc(O)cc3O)oc2c1 [Compound 3, Methyl 2-(2,4-dihydroxyphenyl)-1,3-benzoxazole-6-carboxylate] | 0.286 ± 0.122 | 10.017 | 0.113 ± 0.011 | 1.13 ± 0.016 | 6.43 ± 1.12 | 4.28 ± 0.55 | 3.37 ± 1.52 | 5.47 ± 2.16 | 5.325 | 2.92 | toxicity to normal breast cells (LDH release) ([9]; 0.1–10 µM): not toxic; change in lactate dehydrogenase levels ([9]; 5 and 10 µM, vs control): statistically significant reduction; toxicity to keratinocytes (LDH release) ([10]; 0.1–10 µM): not toxic; change in lactate dehydrogenase levels ([10]; HaCaT, 2.5, 5 and 10 µM, vs control): statistically significant reduction |
